Experimental data: patent EP3974434B1, “MACROLIDE DERIVATIVES, PREPARATION METHOD AND APPLICATION THEREOF” (Zhejiang Hisun Pharmaceutical Co., Ltd., priority 2019, dated 2020)
Like-named read-outs stand apart in the source and are kept apart here.

Assays:
[1] = system: BAF3 LMNA-TRKA^WT; assay: Cell proliferation assay (CellTiter-Glo), BAF3 LMNA-TRKA WT; format: cell-based; settings: Mus musculus, 72 hours
Procedure: The following method was used to determine the effects of the compounds of the present invention on cell proliferation. BAF3 cells were purchased from National Infrastructure of Cell Line Resource (Beijing Headquarter). For TRKA, BAF3 cells were used to construct […] stable cell lines of BAF3 LMNA-TRKA^WT and BAF3 LMNA-TRKA^G667C.The above […] cell lines were used to determine the inhibition of the compounds on cell activities. The cells were cultured in an RPMI 1640 medium containing 10% fetal bovine serum, 100 U penicillin and 100 µg/mL streptomycin. The cells were cultured in a 5% CO2 incubator at 37°C. The activities of the cells were determined by CellTiter-Glo® Luminescent Cell Viability Assay kit (Promega, article number: G7573).
The experimental methods were operated according to the steps in the kit instruction, and were briefly described as follows: a test compound was first dissolved in DMSO to prepare a storage solution, and then diluted in gradient with the corresponding cell culture medium to prepare a test sample. A final concentration of the compound ranged from 1 µM to 0.15 nM. […] After the culture, 50 µL of CellTiter-Glo detection solution was added to each well, shaken for 5 minutes, and then stood for 10 minutes, and the luminescence values of each well were read on the microplate reader using a Luminance mode. […]

[2] = system: BAF3 LMNA-TRKA^G595R; assay: Cell proliferation assay (CellTiter-Glo), BAF3 LMNA-TRKA G595R; format: cell-based; settings: Mus musculus, 72 hours
Procedure: The following method was used to determine the effects of the compounds of the present invention on cell proliferation. […] For TRKA, BAF3 LMNA-TRKA^G595R stably transformed cell line was constructed by BAF3 cells. The above cell line was used to determine the inhibition of the compounds on cell activity. […] The cells were cultured in a 5% CO2 incubator at 37°C. The activity of the cells were determined by CellTiter-Glo® Luminescent Cell Viability Assay kit (Promega, article number: G7573).
The experimental methods were operated according to the steps in the kit instruction, and were briefly described as follows: a test compound was first dissolved in DMSO to prepare a storage solution, and then diluted in gradient with the corresponding cell culture medium to prepare a test sample. […] Cells in logarithmic growth phase were inoculated into a 96-well cell culture plate at a suitable density, and the cells were cultured in a 5% CO2 incubator at 37°C overnight. After adding the sample of the test compound, the cells were continuously cultured for 72 hours. After the culture, 50 µL of CellTiter-Glo detection solution was added to each well, shaken for 5 minutes, and then stood for 10 minutes, and the luminescence values of each well were read on the microplate reader using a Luminance mode.

[3] = target: T1, ROS1(G2032R) (Homo sapiens, UniProt P08922, G2032R); assay: HTRF KinEASE-TK kinase activity inhibition assay, ROS1(G2032R); format: biochemical; settings: ATP 0.5 µM
T1 construct: purchased SignalChem R14-12BG-10
T1 sequence (P08922 28-2347 G2032R): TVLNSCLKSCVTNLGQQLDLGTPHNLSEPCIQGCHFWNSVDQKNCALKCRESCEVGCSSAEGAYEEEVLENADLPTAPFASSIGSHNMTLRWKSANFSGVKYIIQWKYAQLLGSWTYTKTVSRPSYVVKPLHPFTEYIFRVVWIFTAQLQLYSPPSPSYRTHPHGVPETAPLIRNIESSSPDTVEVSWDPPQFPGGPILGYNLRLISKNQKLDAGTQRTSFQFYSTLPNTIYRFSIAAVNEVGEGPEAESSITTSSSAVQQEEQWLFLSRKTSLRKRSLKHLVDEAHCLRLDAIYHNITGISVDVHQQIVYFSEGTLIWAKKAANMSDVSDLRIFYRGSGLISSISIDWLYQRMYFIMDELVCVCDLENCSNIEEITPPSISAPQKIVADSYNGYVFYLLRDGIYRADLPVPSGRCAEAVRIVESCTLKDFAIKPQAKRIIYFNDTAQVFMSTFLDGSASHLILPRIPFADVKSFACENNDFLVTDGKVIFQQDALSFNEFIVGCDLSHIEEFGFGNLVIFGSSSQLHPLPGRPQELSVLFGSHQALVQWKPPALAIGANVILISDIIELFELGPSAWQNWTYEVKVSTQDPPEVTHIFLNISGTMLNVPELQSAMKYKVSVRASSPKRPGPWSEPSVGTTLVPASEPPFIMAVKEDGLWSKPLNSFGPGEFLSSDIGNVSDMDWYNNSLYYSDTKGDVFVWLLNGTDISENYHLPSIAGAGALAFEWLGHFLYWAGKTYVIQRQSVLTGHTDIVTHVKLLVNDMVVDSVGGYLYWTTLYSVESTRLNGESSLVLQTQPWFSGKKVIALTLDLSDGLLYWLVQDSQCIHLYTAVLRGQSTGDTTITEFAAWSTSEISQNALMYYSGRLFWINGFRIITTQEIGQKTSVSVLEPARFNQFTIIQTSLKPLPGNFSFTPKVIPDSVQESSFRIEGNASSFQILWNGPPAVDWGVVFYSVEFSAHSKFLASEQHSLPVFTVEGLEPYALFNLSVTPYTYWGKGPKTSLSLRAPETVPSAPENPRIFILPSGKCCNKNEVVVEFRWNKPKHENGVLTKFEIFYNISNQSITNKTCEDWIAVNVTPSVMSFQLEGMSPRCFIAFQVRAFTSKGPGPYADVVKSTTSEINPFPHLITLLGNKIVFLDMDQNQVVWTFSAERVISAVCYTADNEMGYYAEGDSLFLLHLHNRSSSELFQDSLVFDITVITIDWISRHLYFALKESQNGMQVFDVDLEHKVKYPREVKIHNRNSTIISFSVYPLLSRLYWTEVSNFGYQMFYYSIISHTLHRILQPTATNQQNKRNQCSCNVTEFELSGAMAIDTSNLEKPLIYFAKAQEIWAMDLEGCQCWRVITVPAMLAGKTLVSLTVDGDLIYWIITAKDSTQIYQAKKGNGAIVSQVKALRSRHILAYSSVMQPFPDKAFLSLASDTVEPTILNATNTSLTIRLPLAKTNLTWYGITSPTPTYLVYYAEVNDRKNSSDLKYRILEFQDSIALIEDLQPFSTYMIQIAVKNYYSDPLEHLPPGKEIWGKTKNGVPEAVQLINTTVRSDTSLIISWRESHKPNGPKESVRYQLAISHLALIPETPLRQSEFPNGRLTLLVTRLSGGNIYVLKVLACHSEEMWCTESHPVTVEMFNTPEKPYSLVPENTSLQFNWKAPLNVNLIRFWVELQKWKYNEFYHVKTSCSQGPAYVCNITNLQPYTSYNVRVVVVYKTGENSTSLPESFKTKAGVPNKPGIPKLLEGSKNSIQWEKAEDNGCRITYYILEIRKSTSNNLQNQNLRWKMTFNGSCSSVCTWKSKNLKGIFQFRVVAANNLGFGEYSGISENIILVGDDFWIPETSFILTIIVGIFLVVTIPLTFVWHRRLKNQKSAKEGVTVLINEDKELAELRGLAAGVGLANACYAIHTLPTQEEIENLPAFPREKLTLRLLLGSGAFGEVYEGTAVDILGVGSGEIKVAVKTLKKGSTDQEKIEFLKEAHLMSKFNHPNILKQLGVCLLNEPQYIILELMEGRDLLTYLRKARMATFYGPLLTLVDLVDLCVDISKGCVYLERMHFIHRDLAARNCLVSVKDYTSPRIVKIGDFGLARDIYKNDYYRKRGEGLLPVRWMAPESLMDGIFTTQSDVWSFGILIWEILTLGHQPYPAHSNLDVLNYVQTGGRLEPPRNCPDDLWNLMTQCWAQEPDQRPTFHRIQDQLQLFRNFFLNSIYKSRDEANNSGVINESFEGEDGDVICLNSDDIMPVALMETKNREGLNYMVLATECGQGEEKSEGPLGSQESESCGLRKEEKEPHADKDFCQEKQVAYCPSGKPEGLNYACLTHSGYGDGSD
Text: The following method was used to determine the inhibition degrees of the compounds of the present invention on the activity of recombinant human ROS1 kinase in vitro. In this method, HTRF®KinEASE-TK tyrosine kinase kit (article No. 62TK0PEB) of Cisbio company was used, the principle of the kit was based on time-resolved fluorescence resonance energy transfer (TF-FRET), and the inhibition of the compounds on the activity of the ROS1 kinase was reflected by determining a phosphorylation degree of a biotinylated polypeptide substrate mediated by ROS1 kinase. For detailed experimental operation, please refer to the kit instruction. […]
The experimental flow was briefly described as follows: a test compound was first dissolved in DMSO to prepare a storage solution, and then diluted in gradient with a buffer provided in the kit. […] An ATP Km value concentration of each ROS1 protein was determined by using an ATP solution diluted in gradient (Sangon Biotech (Shanghai) Co., Ltd., A600311). […] After incubation, fluorescence intensity values of each well at an excitation wavelength of 304 nm, and emission wavelengths of 620 nm and 665 nM were determined in a TF-FRET mode on a microplate reader, and the fluorescence intensity ratio 665/620 of each hole was calculated. […]

[4] = Pharmacokinetic study on ICR mice (plasma, LC-MS/MS); format: in vivo; settings: male, mouse; for bioavailability: 5 mg/kg oral intake vs 1 mg/kg injection, read-out: Bioavailability F(%); for AUC(0-inf): read-out: Area under curve AUC0-∞; for Cmax: read-out: Blood concentration Cmax; for half-life: read-out: Half-life T1/2(h) (converted); for clearance: read-out: Clearance rate
Procedure: ICR mice, male, 29.0 g to 33.8g, purchased from Beijing Charles River Laboratory Animal Technology Co., Ltd.
Intravenous injection group: an appropriate amount of drug was weighed, and added with mixed solvent (DMA: 30% Solutol HS-15: Saline = 10: 10: 80 (v/v/v)) to prepare the drug with a final concentration of 0.2 mg/mL.
Oral gavage administration group: an appropriate amount of drug was weighed, added with an appropriate amount of sodium carboxymethyl cellulose (CMC-Na, containing 0.5% Tween 80), vortex shaked, and ultrasonically prepared into […] suspension.
For ICR mice, each compound to be tested was divided into an intravenous injection group (9 mice in each group) and an intragastric group (9 mice in each group). The ICR mice were fasted overnight and then administered by orbital intravenous injection (administration dose of 1 mg/kg, and administration volume of 5 mL/kg) and administered by intragastric injection (administration dose of 5 mg/kg, and administration volume of 10 mL/kg), and ate 4 hours after administration.
About 0.2 mL of blood was collected via jugular vein before administration and 0.083 hour, 0.25 hour, 0.5 hour, 1 hour, 2 hours, 4 hours, 8 hours, 12 hours and 24 hours after administration, and heparin sodium was used for anticoagulation. The collected blood samples were placed on ice, and plasma was separated by centrifugation (centrifugation condition: 1500 g, 10 minutes). The collected plasma was stored at-40°C to -20°C before analysis.
LC-MS/MS was used to determine the contents of different compounds to be tested in mouse plasma after intravenous injection and intragastric administration.
The pharmacokinetic parameters of the compounds of the present invention and the positive control can be seen in Table 8. Table 8 Results of pharmacokinetic parameters

[5] = intravenous, 1 mg/kg, injection

| IC50 [1] | IC50 [2] | IC50 [3] | bioavailability [4] | AUC(0-inf) ([4]; 5 mg/kg, oral intake) | Cmax ([4]; 5 mg/kg, oral intake) | half-life ([4]; 5 mg/kg, oral intake) | AUC(0-inf) [4, 5] | clearance [4, 5] | half-life [4, 5] | SMILES |
| --- | --- | --- | --- | --- | --- | --- | --- | --- | --- | --- |
| 1.5 nM | 3.1 nM | 0.34 nM | 53% | 5620 ng·h/mL | 2260 ng/mL | 1.54 h | 2100 ng·h/mL | 7.9 mL/min/kg | 1.47 h | C[C@H]1Nc2ccn3ncc(c3n2)C(=O)NC[C@@]2(C)Cc3cc(F)cc1c3O2 [Example 8, (3R,11R)-6-fluoro-3,11-dimethyl-10-oxa-2,13,17,1 8,21-pentaazapentacyclo[13.5.2.1^8,11.0^4,9.0^18,22]tric osa-1(21),4,6,8,15(22),16,19-heptaen-14-one] |
| 1.2 nM | 2.2 nM | 2.11 nM | 47% | 4850 ng·h/mL | 1050 ng/mL | 3.15 h | 2060 ng·h/mL | 8.11 mL/min/kg | 1.54 h | C[C@H]1Nc2ccn3nc(N)c(c3n2)C(=O)NC[C@@]2(C)Cc3cc(F)cc1c3O2 [Example 25, (3R,11R)-16-amino-6-fluoro-3,11-dimethyl-10-oxa-2,13,17,18,21-pentaazapentacyclo[13.5.2.1^8,11.0^4,9. 0^18,22]tricosa-1(21),4,6,8,15(22),16,19-heptaen-14-one] |
